Here are results for seven compounds from ChEMBL document CHEMBL3817846, “Isomeric iodinated analogs of nimesulide: Synthesis, physicochemical characterization, cyclooxygenase-2 inhibitory activity, and transport across Caco-2 cells” (Bioorg Med Chem, 2016).

Data set [1] in a line: Stability in Balb/cCrSlc mouse plasma assessed as parent compound remaining up to 120 mins by HPLC analysis. The conditions noted are these: read-out: Stability. The data set is classed as ADME, cell-free.
Data set [2] is described as follows: Acid dissociation constant, pKa of compound at 20 ug/ml at pH 5.6 to 6.8 by micro-scale spectrophotometric method. The data set is classed as physicochemical.
Data set [3] is described as follows: Apparent permeability from basolateral to apical side in human Caco2 cells at 1 uM after 1 to 2 hrs by LC-MS analysis. The data set is classed as ADME, cell-based. The following applies: Caco-2. Background: Caco-2 monolayers are a common model of the intestinal barrier.
Data set [4] in a line: Apparent permeability from apical to basolateral side in human Caco2 cells at 1 uM after 1 to 2 hrs by LC-MS analysis. The data set is classed as ADME, cell-based. The conditions noted are these: Caco-2.
Data set [5] has as its target T1, Prostaglandin G/H synthase 2 (Ovis aries, UniProt P79208).
T1 sequence (P79208 whole entry): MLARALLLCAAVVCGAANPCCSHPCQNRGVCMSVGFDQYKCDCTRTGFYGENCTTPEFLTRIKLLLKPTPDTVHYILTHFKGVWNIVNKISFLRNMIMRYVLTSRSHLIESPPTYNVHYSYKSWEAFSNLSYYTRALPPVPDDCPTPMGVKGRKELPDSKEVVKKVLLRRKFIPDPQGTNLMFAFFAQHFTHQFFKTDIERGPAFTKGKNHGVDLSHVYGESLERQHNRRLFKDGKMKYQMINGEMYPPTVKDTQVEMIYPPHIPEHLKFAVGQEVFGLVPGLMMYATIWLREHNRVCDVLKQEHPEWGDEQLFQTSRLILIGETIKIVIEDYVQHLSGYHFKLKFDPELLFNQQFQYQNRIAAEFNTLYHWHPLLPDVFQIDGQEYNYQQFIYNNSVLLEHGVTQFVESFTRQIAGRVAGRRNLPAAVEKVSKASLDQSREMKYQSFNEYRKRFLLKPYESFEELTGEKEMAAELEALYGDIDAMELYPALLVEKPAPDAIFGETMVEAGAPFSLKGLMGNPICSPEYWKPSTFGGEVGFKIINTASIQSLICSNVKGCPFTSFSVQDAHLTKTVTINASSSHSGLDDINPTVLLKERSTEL
Briefly: Inhibition of heme catalyzed hydroperoxidase activity of ovine COX-2 using arachidonic acid as substrate preincubated for 5 mins followed by substrate addition measured after 5 mins by TMPD oxidation based colorimetric assay.

A short description of data set [6]: Octanol-water partition coefficient, log P of compound at pH 7.4 by reverse phase HPLC analysis. The data set is classed as physicochemical.
Data set [7] in a line: Efflux ratio of permeability from basolateral to apical side over apical to basolateral side in human Caco2 cells at 1 uM after 1 to 2 hrs by LC-MS analysis. The following applies: Caco-2. The data set is classed as ADME, cell-based.
Data set [8] can be described thus: Efflux ratio of permeability from basolateral to apical side over apical to basolateral side in human Caco2 cells at 10 uM after 1 to 2 hrs by LC-MS analysis. In kind it is ADME, cell-based. The conditions noted are these: Caco-2.
Data set [9] is described as follows: Apparent permeability from apical to basolateral side in human Caco2 cells at 10 uM after 1 to 2 hrs by LC-MS analysis. The data set is classed as ADME, cell-based. The following applies: Caco-2.
In data set [10] the target is T2, Prostaglandin G/H synthase 1 (Ovis aries, UniProt P05979).
T2 sequence (P05979 whole entry): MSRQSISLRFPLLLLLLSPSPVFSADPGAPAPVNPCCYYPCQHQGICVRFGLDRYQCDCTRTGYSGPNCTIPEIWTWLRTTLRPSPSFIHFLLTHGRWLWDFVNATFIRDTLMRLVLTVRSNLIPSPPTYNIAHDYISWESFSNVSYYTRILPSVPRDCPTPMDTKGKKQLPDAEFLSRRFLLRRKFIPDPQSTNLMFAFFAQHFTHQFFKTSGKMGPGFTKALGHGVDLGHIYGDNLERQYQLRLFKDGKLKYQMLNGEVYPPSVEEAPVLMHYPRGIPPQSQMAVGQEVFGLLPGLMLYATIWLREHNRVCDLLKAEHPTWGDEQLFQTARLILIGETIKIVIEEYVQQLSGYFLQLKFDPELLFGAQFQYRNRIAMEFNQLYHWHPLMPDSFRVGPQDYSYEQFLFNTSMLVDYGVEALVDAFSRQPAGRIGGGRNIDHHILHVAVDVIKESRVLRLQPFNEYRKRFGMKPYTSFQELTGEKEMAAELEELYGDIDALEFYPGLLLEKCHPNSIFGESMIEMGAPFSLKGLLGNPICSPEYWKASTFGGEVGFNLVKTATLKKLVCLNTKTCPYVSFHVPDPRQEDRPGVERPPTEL
Briefly: Inhibition of heme catalyzed hydroperoxidase activity of ovine COX-1 using arachidonic acid as substrate preincubated for 5 mins followed by substrate addition measured after 5 mins by TMPD oxidation based colorimetric assay.

Data set [11] in a line: Apparent permeability from basolateral to apical side in human Caco2 cells at 10 uM after 1 to 2 hrs by LC-MS analysis. The following applies: Caco-2. The data set is classed as ADME, cell-based.

Broadly, the pKa is the pH at which an ionisable group is half protonated. Low readings indicate a stronger acid or weaker base, high ones a weaker acid or stronger base. `COc1cccc(Oc2cc([N+](=O)[O-])ccc2NS(C)(=O)=O)c1`: the remaining at 2 h in data set [1] worked out at 99.3%. The same compound came in with a pKa in data set [2] of 6.87.
`CS(=O)(=O)Nc1ccc([N+](=O)[O-])cc1Oc1ccccc1` [NIMESULIDE]: the remaining at 2 h in data set [1] worked out at 98%. In addition, the pKa in [2] was 6.57.
In the case of `COc1ccc(Oc2cc([N+](=O)[O-])ccc2NS(C)(=O)=O)cc1`, in data set [1], the remaining at 2 h was found to be 98.5%. Also, in [2], the pKa amounted to 7.01.
One may read the Papp B→A as the apparent permeability from the basolateral to the apical side of a cell layer. One may read the Papp A→B as how fast a substance crosses the layer from the apical side. A word on the IC50: it is the concentration needed to halve the response being measured. Low values mean greater potency, high ones weaker potency. A word on the logP: it is a log measure of how a compound divides between an organic and an aqueous phase. Low values mean a more hydrophilic compound, high ones a more lipophilic compound. One may read the efflux ratio as the permeability from basolateral to apical divided by that in the opposite direction, in the common usage. Take `CS(=O)(=O)Nc1ccc([N+](=O)[O-])cc1Oc1cccc(I)c1`: the Papp B→A at 1 µM in data set [3] was 26.4 ×10⁻⁶ cm/s. The Papp A→B at 1 µM in data set [4] was 31.4 ×10⁻⁶ cm/s. For the same compound, the IC50 in data set [5] and in data set [10] was above 100 µM each time. Besides, the remaining at 2 h in [1] came out at 98.4%. Moreover, the logP in data set [6] was 2.72. For the same compound, in data set [7], the efflux ratio at 1 µM was 0.84. The efflux ratio at 10 µM in data set [8] is 0.67. The Papp A→B at 10 µM in [9] amounted to 27 ×10⁻⁶ cm/s. Moreover, in data set [11], the Papp B→A at 10 µM was determined as 18 ×10⁻⁶ cm/s. Further, the pKa in data set [2] worked out at 6.74.
Consider `CS(=O)(=O)Nc1ccc([N+](=O)[O-])cc1Oc1ccc(I)cc1`, for which, in data set [3], the Papp B→A at 1 µM worked out at 18.3 ×10⁻⁶ cm/s. Moreover, in [4], the Papp A→B at 1 µM was found to be 40.5 ×10⁻⁶ cm/s. The IC50 in [5] was 0.47 µM; in data set [10], above 100 µM. Also, the remaining at 2 h in [1] was 97.5%. The logP in [6] worked out at 2.77. Besides, the efflux ratio at 1 µM in data set [7] amounted to 0.45. Besides, the efflux ratio at 10 µM in data set [8] worked out at 0.78. Moreover, the Papp A→B at 10 µM in [9] was 17.1 ×10⁻⁶ cm/s. In addition, the Papp B→A at 10 µM in data set [11] was 13.4 ×10⁻⁶ cm/s. In addition, the pKa in data set [2] stood at 6.89.
As for `COc1ccccc1Oc1cc([N+](=O)[O-])ccc1NS(C)(=O)=O`, the remaining at 2 h in data set [1] is 97.6%. The pKa in [2] came out at 7.07.
`CS(=O)(=O)Nc1ccc([N+](=O)[O-])cc1Oc1ccccc1I`: in data set [3], the Papp B→A at 1 µM amounted to 21.9 ×10⁻⁶ cm/s. Further, the Papp A→B at 1 µM in data set [4] was 30.1 ×10⁻⁶ cm/s. Further, the 50% inhibitory concentration (IC50) in data set [5] and in data set [10] was above 100 µM throughout. In addition, in data set [1], the remaining at 2 h is 95%. This compound came in with a logP in data set [6] of 2.11. In data set [7], the efflux ratio at 1 µM amounted to 0.72. Besides, the efflux ratio at 10 µM in [8] was 0.78. The Papp A→B at 10 µM in data set [9] amounted to 33.8 ×10⁻⁶ cm/s. Further, the Papp B→A at 10 µM in data set [11] worked out at 26.4 ×10⁻⁶ cm/s. The same compound showed a pKa in data set [2] of 6.57.
